This assay relates to CFU-E. The assay is described as follows: Colony formation assay, adult peripheral blood LDMNC: CFU-E. Type of assay: cell-based, human. Conditions: for fold increase in CFU-E, adult blood, 0.2 U/ml Epo: ~20% O2, compared to untreated controls (no addition) at 0.2 U/ml Epo; for increase in number of CFU-E progenitors, adult blood, ambient O2 (in words): 2 U/ml Epo. The protocol: Blood was collected with informed consent from the antecubital vein of healthy adult human volunteers into vacutainers containing 143 USP U/ml sodium heparin. Low density mononuclear cells (LDMNC) were isolated by centrifugation over a density gradient as described in Example 1. Plastic adherent cells were removed by an overnight incubation in a tissue culture flask and the non-adherent cells were placed directly in a CFA. Conditions for the CFA are similar to those described in Examples 1-4.
The mean fold increase in adult blood BFU-E, CFU-E and CFU-GM progenitor number produced by 1.0 mg/ml HAo (15.6 μM) or HEMOLINK™ (15.6 μM), 100 μM hemin or 250 μM FeCl3 is shown in FIG. 9 (n=3). Cultures were maintained at ambient oxygen tensions (˜20% O2) for 14 days. The fold increase in colonies is expressed relative to control cells treated only with the respective vehicles. […] The magnitude of this increase was greater for adult than cord blood LDMNC.
The mean fold increase in adult blood BFU-E, CFU-E and CFU-GM progenitor number at 5% O2 is shown in FIG. 10 with the same additives. Results are expressed relative to control cells treated only with the respective vehicles and cultured at ambient oxygen tensions (˜20% O2). Reduced oxygen tensions (5% O)2 enhanced the growth of BFU-E which was further increased by the addition of HAo, HEMOLINK™, hemin or FeCl3. All agents stimulated a similar increase in BFU-E number (˜9-11-fold) at 5% O2 compared to untreated control cells at ambient oxygen tensions.
Mean fold increase in adult blood BFU-E, CFU-E and CFU-GM progenitor number in the presence of reduced Epo (0.2 U/ml) (n=3) at 20% O2 is shown in FIG. 11 with and without (no addition) the additives used in FIG. 9. Results are expressed relative to control cells at 2 U/ml Epo treated only with the respective vehicles (solid line at fold expansion=1.0). […] As with cord blood, CFU-GM numbers were unaffected by reductions in Epo. The addition of HAo or HEMOLINK™ to CFAs containing 0.2 U/ml Epo stimulated ˜4.5- and ˜3.5-fold increases in BFU-E and CFU-E, respectively, compared to untreated controls (no addition), restoring the progenitor number to that obtained at 2 U/ml Epo. Hemin stimulated the greatest increase in BFU-E and CFU-E (˜9- and ˜6-fold, respectively) at 0.2 U/ml Epo versus the untreated controls (no addition). FeCl3 stimulated only a ˜2-fold increase in erythroid progenitor number at 0.2 U/ml Epo.
Mean fold increase in adult blood BFU-E, CFU-E and CFU-GM progenitor number at 5% O2 in the presence of reduced Epo (0.2 U/ml) (n=3) is shown in FIG. 12 with and without the additives used in FIG. 9. Results are expressed relative to control cells at 2 U/ml Epo treated only with the respective vehicles and cultured at ambient oxygen tensions (˜20% O2) for 14 days (solid line at fold expansion=1.0). The number of erythroid progenitors stimulated at 5% O2 and 0.2 U/ml Epo was similar to that obtained with 2.0 U/ml Epo maintained at ambient oxygen tensions (no addition).

On to `C=CC1=C(C)C2=Cc3c(C=C)c(C)c4[n]3[Fe-2]35([Cl])[n]6c(c(C)c(CCC(=O)O)c6=CC6=[N+]3C(=C4)C(C)=C6CCC(=O)O)=CC1=[N+]25` [hemin], for which the “fold increase in CFU-E, adult blood, 0.2 U/ml Epo” value (“fold increase in CFU-E” below) is given as approximately 6 fold and the “increase in number of CFU-E progenitors, adult blood, ambient O2 (in words)” value (“increase in number of CFU-E progenitors” below) is on record as “slight increases”.

Turning to “HAo: adult human hemoglobin obtained from red blood cells and purified by displacement chromatography; uncross linked product”, the “fold increase in CFU-E” value is reported as approximately 3.5 fold and the “increase in number of CFU-E progenitors” value was “slight increases”.

For the compound “HEMOLINK™: chemically crosslinked hemoglobin prepared by treating human hemoglobin with a polyaldehyde (O-raffinose)”, the “fold increase in CFU-E” value is approximately 3.5 fold and the “increase in number of CFU-E progenitors” value is recorded as “slight increases”.
